# Test results reported in PMC12526156, “Optimization of the Macrocyclic Tetrapeptide [D-Trp]CJ-15,208 to Prevent Stress-Induced Relapse of Cocaine-Seeking Behavior” (Molecules, 2025).
# Like-named read-outs stand apart in the source and are kept apart here. Where a SMILES comes first, the peptide text is derived from it. [ ]: non-standard residue; d: D form. dPhe(4-NO2) = N[C@H](Cc1ccc([N+](=O)[O-])cc1)C(=O)O; dPhe(3,4,5-F3) = N[C@H](Cc1cc(F)c(F)c(F)c1)C(=O)O; dPhe(F5) = N[C@H](Cc1c(F)c(F)c(F)c(F)c1F)C(=O)O; dTrp(1-Me) = Cn1cc(C[C@@H](N)C(=O)O)c2ccccc21; dPhe(4-NH2) = Nc1ccc(C[C@@H](N)C(=O)O)cc1; dPhe(4-Me) = Cc1ccc(C[C@@H](N)C(=O)O)cc1; dPhe(2-Me) = Cc1ccccc1C[C@@H](N)C(=O)O; dPhe(4-F) = N[C@H](Cc1ccc(F)cc1)C(=O)O; dPhe(2-F) = N[C@H](Cc1ccccc1F)C(=O)O
# Tests used:
# hKOR [1] = target: T1, hKOR (Homo sapiens, UniProt P41145); test: KOR cAMP assay using GloSensor-22F, agonist mode (KOR-CHO-GLO cells); type: cell-based; details: for Emax at 10 µM: read-out: KOR Efficacy (%)
# [2] = Metabolic stability in human liver microsomes; type: in vitro ADME; details: 1 mg protein/mL; for half-life / microsomal CLint: microsomes; for half-life / half-life at 1 µM: 1 µM compound, 37 °C, read-out: HLM t1/2; for microsomal CLint / microsomal CLint at 1 µM: read-out: HLM CLint; for half-life at 1 µM / microsomal CLint at 1 µM: human liver microsomes
# Protocol: (§1) Evaluation of the metabolic stability of the macrocyclic tetrapeptides by human and mouse liver microsomes was performed by Curia Global (Buffalo, NY, USA). […]
# [3] = Metabolic stability in mouse liver microsomes; type: in vitro ADME; details: 1 mg protein/mL; for half-life / microsomal CLint: microsomes; for half-life / half-life at 1 µM: 1 µM compound, 37 °C, read-out: MLM t1/2; for microsomal CLint / microsomal CLint at 1 µM: read-out: MLM CLint; for half-life at 1 µM / microsomal CLint at 1 µM: mouse liver microsomes
# Protocol: as §1
# [4] = Kinetic aqueous solubility; type: physicochemical; details: 1% DMSO, pH 7.4
# Excerpt: Table A1 Stability of [D-Trp]- and [D-Phe^4]CJ-15,208 and selected analogs in human (HLMs) and mouse liver microsomes (MLMs)^1. and kinetic aqueous solubility. | column: Solubility ^2 / (µM)
# hKOR [5] = target: T1, hKOR; test: Competition binding, [3H]U69,593, hKOR-CHO membranes; details: for Ki: [3H]U69,593, human KOR, ± S.E.M., three independent experiments, read-out: KOR Ki
# human MOR = target: T2, human MOR (Homo sapiens, UniProt P35372); test: biochemical; type: binding
# T2 construct: expressed in transfected cells
# hKOR [6] = target: T1, hKOR; test: KOR cAMP assay using GloSensor-22F, antagonist mode (vs 10 nM U50,488); type: cell-based
# Excerpt: A piggy-Bac (PB) transposon/transposase system was utilized to allow for the stable integration of the GloSensor-22F cAMP sensor (Promega, Madison, WI, USA) gene into genomic TTAA sites in Chinese hamster ovary cells already stably expressing the hKOR. The pFastBac hyperPB plasmid vector, which codes for the piggy-Bac transposon/transposase system, was utilized and was a kind gift from Dr. John Lueck. The multicistronic expression cassette developed for our experiments consisted of a CMV promoter driving constitutive expression of GloSensor-22F cAMP sensor, followed by an internal ribosome entry site (IRES) to drive the expression of codon-optimized HygR-P2A-mScarlet (hygromycin resistance gene and mScarlet separated by a 2A self-cleaving peptide element). To clone the expression cassette onto the pFastBac vector, the CMV promoter and GloSensor-22F were PCR amplified from pGloSensor-22F cAMP Plasmid (Promega), the IRES sequence was PCR amplified from pLVX-CMV-Galpha-oA ONE-GO (a gift from Dr. Mikel Garcia-Marcos, Addgene plasmid #189732), the HygR-P2A-mScarlet sequence was a kind gift from Dr. Lueck, and a bGH-poly(A) termination sequence was PCR amplified from pcDNA3.1(+). The pFastBac vector was linearized via overnight digestion with CspCI at 37 °C, which cuts between two inverted terminal repeat (ITR) sequences, and the corresponding backbone and all PCR fragments were gel purified and assembled via Gibson assembly using the Gibson Assembly MasterMix (New England Biolabs, Ipswich, MA, USA). The resulting pFastBac CMV GloSensor-22F IRES HygR-P2A-mScarlet bGH plasmid was transformed into NEB Stable Competent E. coli (New England Biolabs), miniprepped using the E.Z.N.A. Plasmid DNA Mini Kit (Omega Bio-Tek, Norcross, GA, USA), and sequence verified by nanopore whole-plasmid sequencing (Eurofins Genomics, Louisville, KY, USA).
# 3.0 × 10^6 hKOR-CHO cells were plated on a 6 cm dish and incubated for four h at 37 °C and 5% CO2 in DMEM (Corning Mediatech, Manassas, VA, USA) supplemented with 5% FBS (Corning Mediatech), 1% Penicillin/Streptomycin (Gibco, Waltham, MA, USA). The cells were then transfected with 2.0 μg pFastBac CMV GloSensor-22F IRES HygR-P2A-mScarlet bGH using PEI as a transfection reagent. The following day, transfected cells were reseeded onto a 10 cm dish at a density of 5.0 × 10^5 cells and 600 μg/mL hygromycin B (Gold Bio, St. Louis, MO, USA) was added to the culture media. Cells were cultured under selection antibiotics for seven days, and the selection process was monitored by the increase in abundance of mScarlet positive cells via epifluorescence microscopy.
# Following the selection period, KOR-CHO-GLO cells were maintained at 37 °C and 5% CO2 in DMEM supplemented with 5% FBS, 1% Penicillin/Streptomycin and 300 μg/mL hygromycin B to reduce the likelihood of CMV promoter silencing. On the day of the assay, cells were detached with 0.05% trypsin (Gibco) and counted, then centrifuged (1000× g, 5 min) and resuspended in assay buffer (1xPBS, 0.1% glucose, 0.5 mM MgCl2) containing 4 mM D-luciferin substrate (Gold Bio) at approximately 2 million cells/mL. 25 μL of cells (~50,000/well) were seeded onto poly L-lysine-coated white 96-well flat bottom plates (Greiner Bio-One, Kremsmünster, Austria)) and returned to the incubator for 60 min. Following incubation, cells were allowed to equilibrate to room temperature protected from light (10–15 min). Initial luminescence readings (at least 10 cycles) were collected for each well using a FLUOstar Omega v.6.2 plate reader (BMG Labtech, Ortenberg, Germany), after which the plate was removed. Prepared 4x treatments of drug (25 μL) were added to appropriate wells followed by 50 μL of 20 μM forskolin (AmBeed, Buffalo Grove, IL, USA) before the plate was returned to the reader and luminescence measured until final plateau levels were achieved (20–30 min). Assays were performed in duplicate and repeated at least three times.
# [7] = [3H]DAMGO, human MOR, ± S.E.M., three independent experiments, read-out: MOR Ki
SMILES,Emax at 10 µM (hKOR [1]) [%],solubility kinetic [4] [µM],Ki (hKOR [5]) [nM],Selectivity (MOR Ki/KOR Ki) (hKOR [5]; MOR Ki/KOR Ki),Ki (human MOR; [7]) [nM],half-life at 1 µM [2] [min],microsomal CLint at 1 µM [2] [µL/min/mg],half-life at 1 µM [3] [min],microsomal CLint at 1 µM [3] [µL/min/mg],IC50 (hKOR [6]) [nM],further results
O=C1N[C@H](Cc2ccc(F)cc2)C(=O)N[C@@H](Cc2ccccc2)C(=O)N2CCC[C@@H]2C(=O)N[C@H]1Cc1ccccc1 [Analog 7] (cyclo(F[dP]F[dPhe(4-F)])),5.5 ± 7.9,25,,,,,,,,,half-life [2]: 2.3 min; microsomal CLint [2]: 296 µL/min/mg; half-life [3]: 3.4 min; microsomal CLint [3]: 202 µL/min/mg
Cc1ccc(C[C@H]2NC(=O)[C@H](Cc3ccccc3)NC(=O)[C@H]3CCCN3C(=O)[C@H](Cc3ccccc3)NC2=O)cc1 [Analog 15] (cyclo(F[dP]F[dPhe(4-Me)])),18 ± 1.4,24,,,,,,,,,half-life [2]: 5.4 min; microsomal CLint [2]: 129 µL/min/mg; half-life [3]: 2.9 min; microsomal CLint [3]: 236 µL/min/mg
Nc1ccc(C[C@H]2NC(=O)[C@H](Cc3ccccc3)NC(=O)[C@H]3CCCN3C(=O)[C@H](Cc3ccccc3)NC2=O)cc1 [Analog 17] (cyclo(F[dP]F[dPhe(4-NH2)])),,,,,,,,,,,inhibition at 10 µM (hKOR [5]; at 10 μM): 65%
O=C1N[C@H](Cc2c(F)c(F)c(F)c(F)c2F)C(=O)N[C@@H](Cc2ccccc2)C(=O)N2CCC[C@@H]2C(=O)N[C@H]1Cc1ccccc1 [Analog 12] (cyclo(F[dP]F[dPhe(F5)])),,,310 ± 9.9,,,,,,,,fold decrease in KOR affinity (fluorine substitution on D-Phe^4) (hKOR [5]): 13 fold
O=C1N[C@H](Cc2ccccc2F)C(=O)N[C@@H](Cc2ccccc2)C(=O)N2CCC[C@@H]2C(=O)N[C@H]1Cc1ccccc1 [Analog 5] (cyclo(F[dP]F[dPhe(2-F)])),,15,39 ± 0.57,9,350 ± 22,1.9,373,1.6,430,,
O=C1N[C@H](Cc2cc(F)c(F)cc2F)C(=O)N[C@@H](Cc2ccccc2)C(=O)N2CCC[C@@H]2C(=O)N[C@H]1Cc1ccccc1 [Analog 10],19 ± 6.8,7.4,27 ± 3.3,10,270 ± 30,1.5,462,1,699,290 ± 40,
"Cn1cc(C[C@H]2NC(=O)[C@H](Cc3ccccc3)NC(=O)[C@H]3CCCN3C(=O)[C@H](Cc3ccccc3)NC2=O)c2ccccc21 [Analog 2, [D-Trp(Me)]CJ-15,208] (cyclo(F[dP]F[dTrp(1-Me)]))",14 ± 7.1,12,16 ± 0.8,2,36 ± 2.6,2.4,286,3.3,211,220 ± 32,
O=C1N[C@H](Cc2ccc([N+](=O)[O-])cc2)C(=O)N[C@@H](Cc2ccccc2)C(=O)N2CCC[C@@H]2C(=O)N[C@H]1Cc1ccccc1 [Analog 16] (cyclo(F[dP]F[dPhe(4-NO2)])),7.3 ± 7.3,6.7,7 ± 0.99,9,61 ± 2.7,6.7,103,4.4,159,210 ± 13,
"O=C1N[C@H](Cc2cc(F)c(F)c(F)c2)C(=O)N[C@@H](Cc2ccccc2)C(=O)N2CCC[C@@H]2C(=O)N[C@H]1Cc1ccccc1 [Analog 11] (cyclo(F[dP]F[dPhe(3,4,5-F3)]))",2.2 ± 6.2,4.8,12 ± 0.44,4,46 ± 5.4,1.6,447,2.9,238,160 ± 19,
"Cc1cc(C)cc([C@@H]2CCCN2Cc2ccc(Oc3ccc(C(N)=O)cc3F)cc2)c1 [Aticaprant, reference compound]",,,0.77 ± 0.1,,,,,,,,"Selectivity (MOR Ki/KOR Ki) (hKOR [5]): 19; Ki (human MOR): 15 ± 2 nM; activity type in the cAMP assay (hKOR [1]): inverse agonist; KOR Efficacy (%) (hKOR [1]; mean % inhibition ± SEM at 10 µM relative to the KOR agonist U50,488, forskolin-stimulated cAMP): −48 ± 3.0 ^8%; IC50 (hKOR [6]; antagonism of an IC80 concentration (10 nM) of U50,488 in the cAMP assay, ± SEM, read-out: KOR Antag. IC50): 8 ± 1.7 nM"
Cc1ccccc1C[C@H]1NC(=O)[C@H](Cc2ccccc2)NC(=O)[C@H]2CCCN2C(=O)[C@H](Cc2ccccc2)NC1=O [Analog 13] (cyclo(F[dP]F[dPhe(2-Me)])),,,110 ± 13,2.5,280 ± 8,,,,,,
